Laboratory results taken from patent US20050171036A1, “Use of antitumor indolopyrrolocarbazole derivative and other anticancer agent in combination” (priority 2002, published 2005).

Experiments:
Assay type in all cases: in vivo
[1] = system: P388 mouse leukemia cells; test: Survival of mice with intraperitoneal P388 leukemia, equivalent-ILS doses (Example 4); conditions: CDF1 mice, P388 i.p.; single i.p. dose day 1; Compound A 25 mg/kg alone, ADM 1.5 mg/kg alone, Compound A 5 + ADM 0.3 mg/kg
Procedure: P388 mouse leukemia cells (1×10^6 cells) were transplanted intraperitoneally per mouse (day 0). One drug or two drugs were intraperitoneally administered on the next day (day 1). […] The ratio of increased life span (ILS %) was determined in the same manner as in Example 2.

[2] = system: P388 mouse leukemia cells; test: Survival of mice with intraperitoneal P388 leukemia, combined use (Example 2); conditions: CDF1 mice, P388 i.p., single i.p. dose day 1, Compound A 75, CDDP 1.67, ADM 1.5, VP-16 7.5 mg/kg; for Number of days survived (average ± standard deviation): complete remission counted as 60 days; for Increased life span (ILS %): versus control
Procedure: P388 mouse leukemia cells (1×10^6 cells) were transplanted intraperitoneally per mouse (day 0). One drug or two drugs were intraperitoneally administered on the next day (day 1). […] The ratio of increased life span (ILS %) was determined according to the following equation: ILS %=((the number of survived days for the group treated with drug)/(the number of survived days for the control group without drug)−1)×100
The combination index (CI) showing combination effect was determined by the following equation in accordance with the method by Uchida et al. (Uchida et al., Gan to Kagaku Ryouhou (Cancer and Chemotherapy), 25, 75-78 (1998)) based on the ILS % obtained from the treatment using one drug and the ILS % obtained from the combined treatment. CI=ILS % of the combined treatment/(ILS % with J-107088 (Compound A) alone+ILS % with another drug)
CI>1: synergistic effect, CI=1: additive effect, CI<1: antagonistic effect

[3] = Toxicity of equivalent-ILS doses given intraperitoneally for 5 consecutive days (Example 4); conditions: ADM 1.5 mg/kg alone, Compound A 5 + ADM 0.3 mg/kg
Procedure: This dose was intraperitoneally administered to mice once a day for consecutive 5 days. Thereafter, whether the animal was alive or dead was observed, and the effect of lowering toxicity was judged. As the toxicity index, the changes in the body weight between that before the administration and that on the subsequent day after the administration were recorded.

Compound	Ratio of increased life span (ILS %) [1] [%]	Number of days survived (average ± standard deviation) [2] [days]	Increased life span (ILS %) [2] [%]	Change in body weight (g) ([3]; before administration versus day after administration, i.p. once a day for 5 days)	Number of dead animals/number of animals per group ([3]; i.p. once a day for 5 consecutive days, Compound A 25 mg/kg alone)
COc1cccc2c1C(=O)c1c(O)c3c(c(O)c1C2=O)C[C@@](O)(C(=O)CO)C[C@@H]3O[C@H]1C[C@H](N)[C@H](O)[C@H](C)O1 [ADM, adriamycin (doxorubicin)]	92	19.0 ± 1.9	65	+0.1 g	0/4
[NH2][Pt]([NH2])([Cl])[Cl] [CDDP, cisplatin]		25.4 ± 19.6	121		
COc1cc([C@@H]2c3cc4c(cc3[C@@H](O[C@@H]3O[C@@H]5CO[C@@H](C)O[C@H]5[C@H](O)[C@H]3O)[C@H]3COC(=O)[C@H]23)OCO4)cc(OC)c1O [VP-16, etoposide]		17.4 ± 4.1	51		
